Source: patent US20040122209A1, “Products for regulating the degradation of collagen and methods for identifying same” (Shriners Hospital For Children, priority 2002, published 2004)
“Also recorded” adds a separate entry of the source.

Experiments:
Assay type in all cases: cell-based
[1] = test system: normal human adult articular cartilage explants; assay: Type II collagen cleavage by collagenase (COL2-3/4C) in human articular cartilage explant culture
Method: Human femoral chondylar cartilages were obtained at autopsy within 18 hours of death from adult persons with no known history of arthritis and no macroscopic signs of articular degeneration. None of the persons had diabetes or had received chemotherapy prior to autopsy. Adult bovine articular cartilage was obtained from adults/bovine steers and cows from metacarpalphalangeal joints obtained at the abbatoir immediately after slaughter. All cartilage specimens were removed immediately to the laboratory under sterile conditions.
(§1) The cartilages were prepared as previously described (Dahlberg, L. et al. (2000) supra. In brief, the cartilage samples were washed three times with basal culture medium containing Dulbecco's modified Eagle's medium (DMEM; Gibco BRL, Life Technologies, Grand Island, N.Y.) with 20 mM HEAPS buffer (pH 7.4) (Gibco BRL), 45 mM NaHCO3, 100 units/ml penicillin, 100 μg/ml streptomycin and 150 μg/ml gentamycin sulphate (Medium A). Full-depth cartilage slices from a single area, around 20 mm×20 mm were cut vertical to the articular surface and then into cubes of approximately 2 mm×2 mm (5-7 cubes were randomly obtained and wet weights about 50-70 mg/well determined).
(§2) The cartilage was assigned to 48 well plate (ca 40 mg/well) and kept in Medium A supplemented with 50 μg/ml ascorbic acid, 0.1 mg/bovine serum albumin, 50 μg/ml insulin, 5.0 μg/ml and 5.0 μg/ml sodium DMEM alone at 37° C. in 95% air/5% CO2. The cartilage was precultured for 2 days and medium was changed at day 0. Thereafter medium (as described in pellet cultures) was replaced every four days. Various CNBr fragments and/or synthetic peptides were freshly added from day 0 at each medium change. Thereafter, cartilage explants and conditioned media were harvested and stored at −20° C.
(§3) The cell pellets and cartilage explant cultured for various times were digested for the extraction of collagenase-generated neoepitope COL2-3/4Cshort (Billinghurst, R. C. et al., (1997) supra) and denatured type II collagen epitope COL2-3/4m and total type II collagen (Hollander, A. P. et al. (1994a) supra), as previously described: Briefly, the harvested pellets were incubated overnight with 1.0 mg/ml α-chymotrypsin at 37° C. to cleave and solubilize denatured collagen leaving the above neoepitope and epitope intact. After inhibition of α-chymotrypsin activity with N-tosyl-L-phenelalanine-chloromethyl ketone (Sigma), the samples were centrifuged and the supernatants were removed and boiled for 10 min. The COL2-3/4Cshort epitope (hereafter referred to as COL2-3/4Cshort) generated by cleavage of type II collagen by collagenase (Billinghurst, R. C. et al. (1997) supra) and intrachain epitope (COL2-3/4m) exposed in denatured type II collagen (Hollander, A. P. et al. (1994a) supra) were measured in α-chymotrypsin extracts by immunoassay. The COL2-3/4Cshort epitope is detected in an ELISA assay using a rabbit antibody to the carboxyterminal cleavage neoepitope on the TCA piece generated by primary collagenase cleavage of type II collagen. The release of the COL2-3/4C epitope into media was also measured by immunoassay. Total contents in tissue/cells and media was recorded for COL2-3/^4Cshort epitope. The COL2-3/4m epitope was recorded in cells and tissue where it was concentrated. The remaining residues of pellets and explants were digested overnight with 1.0 mg/ml proteinase K at 56° C. to extract the remaining intact type II collagen and then boiled for 10 min to denature the enzyme. Total type II collagen content in the pellets and explant was determined from the collective amount of COL2-3/4m in both the α-chymotrypsin and proteinase K digests.

[2] = test system: bovine articular cartilage explant; assay: Proteoglycan (GAG) content and release in bovine explant culture; details: subpeptides at 1 and 10 μM
Method: The cartilages were prepared as previously described (Dahlberg, L. et al. (2000) supra. In brief, the cartilage samples were washed three times with basal culture medium containing Dulbecco's modified Eagle's medium (DMEM; Gibco BRL, Life Technologies, Grand Island, N.Y.) with 20 mM HEAPS buffer (pH 7.4) (Gibco BRL), 45 mM NaHCO3, 100 units/ml penicillin, 100 μg/ml streptomycin and 150 μg/ml gentamycin sulphate (Medium A). Full-depth cartilage slices from a single area, around 20 mm×20 mm were cut vertical to the articular surface and then into cubes of approximately 2 mm×2 mm (5-7 cubes were randomly obtained and wet weights about 50-70 mg/well determined). The cartilage was assigned to 48 well plate (ca 40 mg/well) and kept in Medium A supplemented with 50 μg/ml ascorbic acid, 0.1 mg/bovine serum albumin, 50 μg/ml insulin, 5.0 μg/ml and 5.0 μg/ml sodium DMEM alone at 37° C. in 95% air/5% CO2. The cartilage was precultured for 2 days and medium was changed at day 0. Thereafter medium (as described in pellet cultures) was replaced every four days. Various CNBr fragments and/or synthetic peptides were freshly added from day 0 at each medium change. Thereafter, cartilage explants and conditioned media were harvested and stored at −20° C. In order to show the specificity of the peptide fragments of one embodiment on degradation of type II collagen as compared with proteoglycan, primarily aggrecan, sulphated glycosaminoglycan (GAG) content was determined in both the α-chymotrypsin and proteinase K digests for total proteoglycan (predominantly aggrecan) content in cell pellets, cartilage explants and also in conditioned media. Measurement of release of proteoglycan into media was tested using dimethylene blue dye binding as previously described (Dahlberg, L. et al. (2000) supra).

[3] = test system: bovine articular cartilage explant; assay: Collagenase-cleaved type II collagen (COL2-3/4C) in bovine articular cartilage explant culture; details: 1 and 10 μM, time- and dose-dependent
Method: as §1, §2, §3

COL2-3/4 epitope production in cartilage and medium ([1]; 10 μM, day 12): significant progressive increase | type II collagen cleavage by collagenase in presence of peptide ([1]; hydroxylation study, day 16): clearly enhanced | induction of total collagenase cleavage of type II collagen by CB12 subpeptides [3]: most pronounced
Sequence: ERGPPGPQGARGFPGTPGLPGVK [CB12-II]
induction of cleavage of type II collagen, dose dependence ([1]; 1 μM (one donor), 5 μM and 10 μM (both donors), over 16 days): dose dependent manner; also recorded: Activity was seen | proteoglycan breakdown [2]: no significant effect
